Reference: patent US8501750B2, “Heterocyclic compound and use thereof” (Takeda Pharmaceutical Company Limited, priority 2007, dated 2013)
Counter-ions that a name gives are not always drawn. Like-named read-outs stand apart in the source and are kept apart here.

What was measured:
AT1 receptor = AT1 receptor (Homo sapiens (Human), UniProt P30556); experiment: AT1 receptor binding inhibitory action
PPARγ = PPARγ (Homo sapiens (Human), UniProt P37231); experiment: PPARγ activating action (luciferase reporter in PPARγ:RXRα:4ERPP/CHO-K1 cells); assay type: cell-based; settings: CHO-K1, 24 h, read-out: PPARγ activating action (activation % (1 μM))
PPARγ, sequence (P37231 29-505): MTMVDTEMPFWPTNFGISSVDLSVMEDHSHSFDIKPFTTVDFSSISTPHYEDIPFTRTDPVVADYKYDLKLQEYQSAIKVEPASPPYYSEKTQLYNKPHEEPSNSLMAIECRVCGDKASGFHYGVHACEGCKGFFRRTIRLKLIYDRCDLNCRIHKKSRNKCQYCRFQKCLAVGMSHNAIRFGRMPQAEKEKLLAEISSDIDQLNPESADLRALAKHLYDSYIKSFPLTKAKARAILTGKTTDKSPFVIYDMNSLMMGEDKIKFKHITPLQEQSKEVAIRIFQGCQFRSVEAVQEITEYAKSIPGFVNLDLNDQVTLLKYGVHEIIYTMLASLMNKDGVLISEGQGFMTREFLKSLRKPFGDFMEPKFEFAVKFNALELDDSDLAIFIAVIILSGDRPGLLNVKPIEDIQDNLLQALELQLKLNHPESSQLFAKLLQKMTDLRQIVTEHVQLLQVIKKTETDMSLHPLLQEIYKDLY
PPARγ, sequence (P19793 whole entry partner): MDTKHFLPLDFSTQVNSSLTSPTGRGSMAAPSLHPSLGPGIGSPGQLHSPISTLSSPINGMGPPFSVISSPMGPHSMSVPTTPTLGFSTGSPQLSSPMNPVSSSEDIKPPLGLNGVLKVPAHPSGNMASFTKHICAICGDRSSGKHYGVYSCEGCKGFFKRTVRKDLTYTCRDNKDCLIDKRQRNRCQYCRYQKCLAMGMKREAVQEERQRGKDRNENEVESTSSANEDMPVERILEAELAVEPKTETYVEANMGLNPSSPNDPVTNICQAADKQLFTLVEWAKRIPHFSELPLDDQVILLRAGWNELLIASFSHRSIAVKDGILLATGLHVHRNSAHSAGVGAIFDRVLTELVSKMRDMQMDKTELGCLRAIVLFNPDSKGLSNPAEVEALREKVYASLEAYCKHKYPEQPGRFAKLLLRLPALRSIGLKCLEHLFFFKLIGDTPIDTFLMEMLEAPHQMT
Method: Then the medium was removed from the 96-well half area white plate, 45 μl of Ham's F12 medium containing 0.1% fatty acid-free bovine serum albumin (BSA) and 5 μl of test compound were added, and the cells were cultured in a CO2 gas incubator at 37° C. for 1 day. The medium was removed and 20 μl of PicaGene 7.5 [manufactured by Dainippon Ink and Chemicals Corporation, Japan] diluted 2-fold with HBSS (HANKS' BALANCED SALT SOLUTION) [manufactured by BIO WHITTAKER, USA] was added. After stirring, the luciferase activity was determined using 1420 ARVO Multilabel Counter [manufactured by PerkinElmer, USA]. […] A CHO-K1 cell cultured in a 150 cm^2 cell culture flask [manufactured by Corning Costar Corporation, USA] containing Ham's F12 medium [manufactured by INVITROGEN, USA] supplemented with 10% fetal bovine serum [manufactured by INVITROGEN, USA] was scraped by treating with 0.5 g/L trypsin-0.2 g/L EDTA (ethylenediaminetetraacetic acid) [manufactured by Life Technologies, Inc., USA], and then the cell was washed with PBS (Phosphate-buffered saline) [manufactured by INVITROGEN, USA], centrifuged (1000 rpm, 5 minutes) and suspended in PBS. Subsequently, DNA was introduced into the cell under the conditions shown below using GENE PULSER [manufactured by Bio-Rad Laboratories, USA]. […] Subsequently, the cell was transferred into a F12 medium containing 10% fetal bovine serum and cultured for 24 hours, and then the cell was scraped again and centrifuged, and then suspended in Ham's F12 medium containing 10% fetal bovine serum supplemented with 500 μg/ml of Geneticin [manufactured by INVITROGEN, USA] and 250 μg/ml of Zeocin [manufactured by INVITROGEN, USA]. The obtained suspension was diluted to the density of 10^4 cells/ml and inoculated in a 96-well plate [manufactured by Corning Costar Corporation, USA], which was cultured in a CO2 gas incubator at 37° C., whereby obtaining a Geneticin- and Zeocin-resistant transformant.

[1] = test compound 1 μM, luciferase activity relative to control compound X (1 μM) = 100%, non-administration group = 0%

AT1 receptor, sequence (P30556 whole entry): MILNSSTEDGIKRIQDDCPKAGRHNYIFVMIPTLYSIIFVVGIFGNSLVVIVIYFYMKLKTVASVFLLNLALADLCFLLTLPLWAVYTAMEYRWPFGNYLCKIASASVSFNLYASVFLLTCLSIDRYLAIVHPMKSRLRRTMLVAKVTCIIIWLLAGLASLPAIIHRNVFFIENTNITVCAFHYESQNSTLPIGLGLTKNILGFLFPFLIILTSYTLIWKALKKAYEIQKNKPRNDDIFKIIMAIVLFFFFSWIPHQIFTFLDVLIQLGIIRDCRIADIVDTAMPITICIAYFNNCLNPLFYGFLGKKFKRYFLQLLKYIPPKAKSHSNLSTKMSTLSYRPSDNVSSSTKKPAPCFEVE

Structure (SMILES) | IC50 (AT1 receptor) [nM] | activation at 1 µM (PPARγ; [1]) [%] | activation at 1 µM (PPARγ) [%]
COc1cccc(C(=O)Cn2c(=O)c3cc(C4CC4)sc3n(Cc3ccc(-c4ccccc4-c4noc(O)n4)cc3)c2=O)c1 [Ex. 107, 6-cyclopropyl-3-[2-(3-methoxyphenyl)-2-oxoethyl]-1-{[2′-(5-oxo-4,5-dihydro-1,2,4-oxadiazol-3-yl)biphenyl-4-yl]methyl}thieno[2,3-d]pyrimidine-2,4(1H,3H)-dione potassium salt] | 1.1 |  | 43
CCc1cc2c(=O)n(CC(=O)c3ccccc3OC)c(=O)n(Cc3ccc(-c4ccccc4-c4noc(O)n4)cc3)c2s1 [Ex. 109, 6-ethyl-3-[2-(2-methoxyphenyl)-2-oxoethyl]-1-{[2′-(5-oxo-4,5-dihydro-1,2,4-oxadiazol-3-yl)biphenyl-4-yl]methyl}thieno[2,3-d]pyrimidine-2,4(1H,3H)-dione potassium salt] | 1.4 |  | 64
CCc1cc2c(=O)n(CC(=O)c3ccc(OC)cc3)c(=O)n(Cc3ccc(-c4ccccc4-c4noc(O)n4)cc3C)c2s1 [Ex. 116, 6-ethyl-3-[2-(4-methoxyphenyl)-2-oxoethyl]-1-{[3-methyl-2′-(5-oxo-4,5-dihydro-1,2,4-oxadiazol-3-yl)biphenyl-4-yl]methyl}thieno[2,3-d]pyrimidine-2,4(1H,3H)-dione potassium salt] | 1.8 |  | 38
CCc1cc2c(=O)n(CCN3CCOCC3)c(=O)n(Cc3ccc(-c4ccccc4-c4noc(=O)[nH]4)cc3F)c2s1 [Ex. 117, 6-ethyl-1-{[3-fluoro-2′-(5-oxo-4,5-dihydro-1,2,4-oxadiazol-3-yl)biphenyl-4-yl]methyl}-3-(2-morpholin-4-ylethyl)thieno[2,3-d]pyrimidine-2,4(1H,3H)-dione] | 1.8 | 62 | 
CCc1cc2c(=O)n(CC(=O)c3ccc(Cl)cc3)c(=O)n(Cc3ccc(-c4ccccc4-c4noc(=O)[nH]4)cc3)c2s1 [Ex. 121, 3-[2-(4-chlorophenyl)-2-oxoethyl]-6-ethyl-1-{[2′-(5-oxo-4,5-dihydro-1,2,4-oxadiazol-3-yl)biphenyl-4-yl]methyl}thieno[2,3-d]pyrimidine-2,4(1H,3H)-dione] | 1.7 | 28 | 
COc1ccccc1C(=O)Cn1c(=O)c2cc(CC(F)(F)F)sc2n(Cc2c(F)cc(-c3ccccc3-c3noc(O)n3)cc2F)c1=O [Ex. 127, 1-{[3,5-difluoro-2′-(5-oxo-4,5-dihydro-1,2,4-oxadiazol-3-yl)biphenyl-4-yl]methyl}-3-[2-(2-methoxyphenyl)-2-oxoethyl]-6-(2,2,2-trifluoroethyl)thieno[2,3-d]pyrimidine-2,4(1H,3H)-dione potassium salt] | 1.4 |  | 53
COc1cc(F)ccc1C(=O)Cn1c(=O)c2cc(C3CC3)sc2n(Cc2ccc(-c3ccccc3-c3noc(=O)[nH]3)cc2F)c1=O [Ex. 129, 6-cyclopropyl-3-[2-(4-fluoro-2-methoxyphenyl)-2-oxoethyl]-1-{[3-fluoro-2′-(5-oxo-4,5-dihydro-1,2,4-oxadiazol-3-yl)biphenyl-4-yl]methyl}thieno[2,3-d]pyrimidine-2,4(1H,3H)-dione] | 1.6 | 61 | 
COc1cc(F)ccc1C(=O)Cn1c(=O)c2cc(C3CC3)sc2n(Cc2ccc(-c3ccccc3-c3noc(=O)[nH]3)cc2)c1=O [Ex. 130, 6-cyclopropyl-3-[2-(4-fluoro-2-methoxyphenyl)-2-oxoethyl]-1-{[2′-(5-oxo-4,5-dihydro-1,2,4-oxadiazol-3-yl)biphenyl-4-yl]methyl}thieno[2,3-d]pyrimidine-2,4(1H,3H)-dione] | 1.6 | 56 | 
CCc1cc2c(=O)n(CC(=O)C34CC5CC(CC(C5)C3)C4)c(=O)n(Cc3ccc(-c4ccccc4-c4noc(=O)[nH]4)cc3)c2s1 [Ex. 132, 3-[2-(1-adamantyl)-2-oxoethyl]-6-ethyl-1-{[2′-(5-oxo-4,5-dihydro-1,2,4-oxadiazol-3-yl)biphenyl-4-yl]methyl}thieno[2,3-d]pyrimidine-2,4(1H,3H)-dione] | 1.7 | 50 | 
COc1ccc(C(=O)Cn2c(=O)c3cc(C4CC4)sc3n(Cc3c(F)cc(-c4ccccc4-c4noc(O)n4)cc3F)c2=O)cc1 [Ex. 135, 6-cyclopropyl-1-{[3,5-difluoro-2′-(5-oxo-4,5-dihydro-1,2,4-oxadiazol-3-yl)biphenyl-4-yl]methyl}-3-[2-(4-methoxyphenyl)-2-oxoethyl]thieno[2,3-d]pyrimidine-2,4(1H,3H)-dione potassium salt] | 1.5 |  | 71
O=C(Cn1c(=O)c2cc(CC(F)(F)F)sc2n(Cc2ccc(-c3ccccc3-c3noc(=O)[nH]3)cc2)c1=O)C1CCCCC1 [Ex. 136, 3-(2-cyclohexyl-2-oxoethyl)-1-{[2′-(5-oxo-4,5-dihydro-1,2,4-oxadiazol-3-yl)biphenyl-4-yl]methyl}-6-(2,2,2-trifluoroethyl)thieno[2,3-d]pyrimidine-2,4(1H,3H)-dione] | 1.5 | 36 | 
CCc1cc2c(=O)n(CC(=O)c3nc4ccccc4n3C)c(=O)n(Cc3ccc(-c4ccccc4-c4noc(=O)[nH]4)cc3)c2s1 [Ex. 140, 6-ethyl-3-[2-(1-methyl-1H-benzoimidazol-2-yl)-2-oxoethyl]-1-{[2′-(5-oxo-4,5-dihydro-1,2,4-oxadiazol-3-yl)biphenyl-4-yl]methyl}thieno[2,3-d]pyrimidine-2,4(1H,3H)-dione] | 1.7 | 26 | 
CCc1cc2c(=O)n(CC3(O)CCOCC3)c(=O)n(Cc3ccc(-c4ccccc4-c4noc(=O)[nH]4)cc3)c2s1 [Ex. 145, 6-ethyl-3-[(4-hydroxytetrahydro-2H-pyran-4-yl)methyl]-1-{[2′-(5-oxo-4,5-dihydro-1,2,4-oxadiazol-3-yl)biphenyl-4-yl]methyl}thieno[2,3-d]pyrimidine-2,4(1H,3H)-dione] | 1.7 | 36 | 

Further lines, with some results ahead:

IC50 (AT1 receptor) [nM] | activation at 1 µM (PPARγ; [1]) [%] | Structure (SMILES) | activation at 1 µM (PPARγ) [%]
1.2 | 72 | CCc1cc2c(=O)n(CC(=O)C(C)(C)C)c(=O)n(Cc3ccc(-c4ccccc4-c4noc(=O)[nH]4)cc3)c2s1 [Ex. 131, 3-(3,3-dimethyl-2-oxobutyl)-6-ethyl-1-{[2′-(5-oxo-4,5-dihydro-1,2,4-oxadiazol-3-yl)biphenyl-4-yl]methyl}thieno[2,3-d]pyrimidine-2,4(1H,3H)-dione] | 
1.5 | 38 | CCc1cc2c(=O)n(C/C(=N/OC)C(C)(C)C)c(=O)n(Cc3ccc(-c4ccccc4-c4noc(=O)[nH]4)cc3)c2s1 [Ex. 142, 6-ethyl-3-[2-(methoxyimino)-3,3-dimethylbutyl]-1-{[2′-(5-oxo-4,5-dihydro-1,2,4-oxadiazol-3-yl)biphenyl-4-yl]methyl}thieno[2,3-d]pyrimidine-2,4(1H,3H)-dione] | 
1.4 | 45 | CC(C)(C)C(O)Cn1c(=O)c2cc(C3CC3)sc2n(Cc2ccc(-c3ccccc3-c3noc(=O)[nH]3)cc2)c1=O (centres unmarked) [Ex. 143, 6-cyclopropyl-3-(2-hydroxy-3,3-dimethylbutyl)-1-{[2′-(5-oxo-4,5-dihydro-1,2,4-oxadiazol-3-yl)biphenyl-4-yl]methyl}thieno[2,3-d]pyrimidine-2,4(1H,3H)-dione] | 
1.7 | 40 | CCc1cc2c(=O)n(CC3(C)COC3)c(=O)n(Cc3ccc(-c4ccccc4-c4noc(=O)[nH]4)cc3)c2s1 [Ex. 144, 6-ethyl-3-[(3-methyloxetan-3-yl)methyl]-1-{[2′-(5-oxo-4,5-dihydro-1,2,4-oxadiazol-3-yl)biphenyl-4-yl]methyl}thieno[2,3-d]pyrimidine-2,4(1H,3H)-dione] | 
1.5 | 33 | CCc1cc2c(=O)n(CC(=O)C(C)(C)COC(C)=O)c(=O)n(Cc3ccc(-c4ccccc4-c4noc(=O)[nH]4)cc3)c2s1 [Ex. 148, 4-[6-ethyl-2,4-dioxo-1-{[2′-(5-oxo-4,5-dihydro-1,2,4-oxadiazol-3-yl)biphenyl-4-yl]methyl}-1,4-dihydrothieno[2,3-d]pyrimidin-3(2H)-yl]-2,2-dimethyl-3-oxobutyl acetate] | 
1.8 | 50 | CCc1cc2c(=O)n(CC(O)C(C)(C)C)c(=O)n(Cc3ccc(-c4ccccc4-c4noc(=O)[nH]4)cc3)c2s1 (centres unmarked) [Ex. 149, 6-ethyl-3-(2-hydroxy-3,3-dimethylbutyl)-1-{[2′-(5-oxo-4,5-dihydro-1,2,4-oxadiazol-3-yl)biphenyl-4-yl]methyl}thieno[2,3-d]pyrimidine-2,4(1H,3H)-dione] | 
